The source of these data is ChEMBL document CHEMBL4002573, “New insights into the SAR and drug combination synergy of 2-(quinolin-4-yloxy)acetamides against Mycobacterium tuberculosis” (Eur J Med Chem, 2017).

≈ marks a conversion by molar mass, not a printed value.

Data set [1] in a line: Cytotoxicity against human HepG2 cells assessed as viability at 10 uM after 72 hrs by MTT assay relative to control. The class given is cell-based. To be noted: read-out: Activity. On the technique in general: Tetrazolium assays rely on reduction of a dye to a coloured formazan, in cell work by metabolically active cells.
The nature of data set [2]: Cytotoxicity against African green monkey Vero cells assessed as viability at 10 uM after 72 hrs by MTT assay relative to control. The class given is cell-based. To be noted: chlorocebus sabaeus, read-out: Activity.
Data set [3] can be described thus: Cytotoxicity against mouse RAW264.7 cells assessed as viability at 10 uM after 72 hrs by MTT assay relative to control. The conditions noted are these: read-out: Activity. Type of data set: cell-based.
Data set [4] can be described thus: Cytotoxicity against human HaCaT cells assessed as viability at 10 uM after 72 hrs by MTT assay relative to control. Type of data set: cell-based. To be noted: read-out: Activity.
Data set [5] in a line: Cytotoxicity against mouse N9 cells assessed as viability at 10 uM after 72 hrs by MTT assay relative to control. To be noted: read-out: Activity. Type of data set: cell-based.
In data set [6] the test system is Mycobacterium tuberculosis. In words: Bactericidal activity against Mycobacterium tuberculosis H37Rv infected in mouse RAW264.7 cells assessed as bacterial colony formation at 5 uM after 5 days (reference value: 4.1 to 4.73 log10CU). Type of data set: functional.
Data set [7] is described as follows: Kinetic solubility in water at pH 5.8. The class given is physicochemical. The conditions noted are these: read-out: Kinetic_solubility.
Data set [8] in a line: Kinetic solubility in PBS at pH 7.4. Type of data set: physicochemical. To be noted: read-out: Kinetic_solubility.
Data set [9] is described as follows: Permeability of the compound at 1 uM […] by PAMPA. The class given is physicochemical. To be noted: read-out: permeability.
Data set [10] is described as follows: Intrinsic clearance in human liver S9 fraction at 2 uM by HPLC-MS/MS analysis. Type of data set: ADME, tissue-based.
A short description of data set [11]: Half life in human liver S9 fraction at 2 uM by HPLC-MS/MS analysis. Type of data set: ADME, tissue-based.
Data set [12] in a line: Thermodynamic solubility of the compound in 0.1N HCl at pH 1.5 after 24 hrs by HPLC method. The class given is physicochemical. The conditions noted are these: read-out: Therm_solubility.
Data set [13] can be described thus: Thermodynamic solubility of the compound in acetate buffer at pH 4 after 24 hrs by HPLC method. To be noted: read-out: Therm_solubility. Type of data set: physicochemical.
The test system of data set [14] is Mycobacterium tuberculosis. The experiment in a line: microbe, parasite or virus in culture. To be noted: H37Rv, 168 h.
Description: Antimycobacterial activity against Mycobacterium tuberculosis H37Rv after 7 days by resazurin reduction microplate assay
Data set [15] relates to Mycobacterium tuberculosis. In words: microbe, parasite or virus in culture. To be noted: PE-003, 168 h.
Description: Antimycobacterial activity against Mycobacterium tuberculosis PE-003 clinical isolate after 7 days by resazurin reduction microplate assay
Data set [16] has as its system Mycobacterium tuberculosis. The experiment in a line: microbe, parasite or virus in culture. The conditions noted are these: CDCT-4 (1105/09), 168 h.
Description: Antimycobacterial activity against Mycobacterium tuberculosis CDCT-4 (1105/09) clinical isolate after 7 days by resazurin reduction microplate assay
Data set [17] relates to Mycobacterium tuberculosis. The class given is functional. To be noted: H37Rv, 168 h.
The test system of data set [18] is Mycobacterium tuberculosis. Type of data set: functional. The conditions noted are these: H37Rv, 168 h. This is another data set of the same source.
For data set [19], the system named is Mycobacterium tuberculosis. Type of data set: functional. The conditions noted are these: H37Rv, 168 h. The source holds these as a separate data set.
For data set [20], the system named is Mycobacterium tuberculosis. The class given is functional. The conditions noted are these: H37Rv, 168 h. The source holds these as a separate data set.
Data set [21] deals with Mycobacterium tuberculosis. The class given is functional. The conditions noted are these: H37Rv, 168 h. The source holds these as a separate data set.
Data set [22] relates to Mycobacterium tuberculosis. Type of data set: functional. To be noted: H37Rv, 168 h. The source holds these as a separate data set.

By half-life is commonly meant how long it takes for the measured level to halve. With `COc1ccc2nc(C)cc(OCC(=O)Nc3ccc4c(c3)CCC4)c2c1`, the viability at 72 h, 10 µM was determined as 95% in data set [1]; 97% in data set [2]; 88% in [3]; 99% in [4]; 111% in data set [5]. For the same compound, the Activity in [6] was found to be 3.54 log10CFU. Moreover, the solubility kinetic in data set [7] and in data set [8] was 2.8 µM (≈ 1.01 µg/mL) throughout. Besides, the Papp at 1 µM in data set [9] came to 13.1 ×10⁻⁶ cm/s. In addition, the CLhep predicted at 2 µM in [10] was 16.9 mL/min/kg. The compound further yielded a half-life at 2 µM in data set [11] of 11.7 min. Besides, the values for the solubility thermodynamic at 24 h in data set [12] and in data set [13] were 240 µM (≈ 87 µg/mL) and 120 µM (≈ 43.5 µg/mL), respectively. Besides, the MIC is 0.05 µM (≈ 0.0181 µg/mL) in data set [14], 5 nM (≈ 0.00181 µg/mL) in data set [15] and below 0.05 µM in data set [16].

With `COc1ccc2nc(C)cc(OCC(=O)Nc3ccc(C)cc3)c2c1`, the viability at 72 h, 10 µM in data set [1] came to 80%; in data set [2], 95%; in [3], 92%; in data set [4], 100%; in [5], 106%. Moreover, the Activity in [6] stood at 3.38 log10CFU. The figures for the solubility kinetic in data set [7] and in data set [8] were 17 µM (≈ 5.72 µg/mL) and 17.9 µM (≈ 6.02 µg/mL), respectively. The Papp at 1 µM in [9] is 11.4 ×10⁻⁶ cm/s. The CLhep predicted at 2 µM in [10] was 13.5 mL/min/kg. For the same compound, in [11], the half-life at 2 µM turned out to be 25.4 min. For the same compound, the values for the solubility thermodynamic at 24 h in [12] and in [13] were 1200 µM (≈ 404 µg/mL) and 2100 µM (≈ 706 µg/mL), respectively. Further, the MIC came out at 0.12 µM (≈ 0.0404 µg/mL) in data set [14], 40 nM (≈ 0.0135 µg/mL) in data set [15] and 0.04 µM (≈ 0.0135 µg/mL) in data set [16].

As to `CCc1ccc(NC(=O)COc2cc(C)nc3ccc(OC)cc23)cc1`, the viability at 72 h, 10 µM in data set [1] worked out at 75%; in data set [2], 80%; in data set [3] it was 91%; in data set [4], 96%; in data set [5] it was 112%. In addition, the Activity in data set [6] is on record as 2.81 log10CFU. For the same compound, the solubility kinetic in [7] was 5.2 µM (≈ 1.82 µg/mL); in data set [8], 3.8 µM (≈ 1.33 µg/mL). For the same compound, in data set [10], the CLhep predicted at 2 µM was 16.6 mL/min/kg. In [11], this compound registered a half-life at 2 µM of 12.8 min. In addition, the figures for the solubility thermodynamic at 24 h in [12] and in data set [13] were 790 µM (≈ 277 µg/mL) and 430 µM (≈ 151 µg/mL), respectively. The MIC in data set [14] was 0.06 µM (≈ 0.021 µg/mL); in [15], 6 nM (≈ 0.0021 µg/mL); in [16], below 0.06 µM.

As for `COc1ccc2nc(C)cc(OCC(=O)Nc3ccc(C)c(C)c3)c2c1`, the viability at 72 h, 10 µM came to 71% in [1]; 85% in data set [2]; 88% in [3]; 94% in data set [4]; 105% in [5]. Further, in [6], the Activity stood at 3.35 log10CFU. Besides, the solubility kinetic in [7] came out at 10.4 µM (≈ 3.64 µg/mL); in data set [8], 10.7 µM (≈ 3.75 µg/mL). Besides, the Papp at 1 µM in data set [9] was 5.9 ×10⁻⁶ cm/s. Besides, in [10], the CLhep predicted at 2 µM was 16.2 mL/min/kg. The half-life at 2 µM in data set [11] is 14.2 min. Besides, the solubility thermodynamic at 24 h is 80 µM (≈ 28 µg/mL) in data set [12] and 410 µM (≈ 144 µg/mL) in data set [13]. In addition, the MIC in [14] came to 0.11 µM (≈ 0.0385 µg/mL); in [15], 40 nM (≈ 0.014 µg/mL); in data set [16] it was 0.11 µM (≈ 0.0385 µg/mL).

As for `CCCCc1ccc(NC(=O)COc2cc(C)nc3ccc(OC)cc23)cc1`, the viability at 72 h, 10 µM amounted to 78% in data set [1]; 90% in data set [2]; 91% in data set [3]; 105% in [4]; 107% in data set [5]. Further, the Activity in data set [6] was 3.05 log10CFU. The solubility kinetic in data set [7] was found to be 2.2 µM (≈ 0.833 µg/mL); in [8], 2.3 µM (≈ 0.87 µg/mL). Further, the CLhep predicted at 2 µM in data set [10] was 16.3 mL/min/kg. The compound also yielded a half-life at 2 µM in data set [11] of 13.7 min. Besides, the figures for the solubility thermodynamic at 24 h in [12] and in data set [13] were 240 µM (≈ 90.8 µg/mL) and 50 µM (≈ 18.9 µg/mL), respectively. For the same compound, the values for the MIC in data set [14], in data set [15] and in [16] were 0.1 µM (≈ 0.0378 µg/mL), 8 nM (≈ 0.00303 µg/mL) and below 0.05 µM, respectively.

On to `COc1ccc2nc(C)cc(OCC(=O)Nc3ccc4c(c3)CCCC4)c2c1`, for which the viability at 72 h, 10 µM in data set [1] came out at 85%; in data set [2], 94%; in data set [3] it was 82%; in data set [4], 95%; in data set [5], 103%. Also, in [6], the Activity came to 3.33 log10CFU. Further, the solubility kinetic in [7] worked out at 6.6 µM (≈ 2.48 µg/mL); in data set [8], 1.2 µM (≈ 0.452 µg/mL). In [10], the CLhep predicted at 2 µM is 15.6 mL/min/kg. Moreover, the half-life at 2 µM in data set [11] turned out to be 16.2 min. The values for the solubility thermodynamic at 24 h in [12] and in data set [13] were 90 µM (≈ 33.9 µg/mL) and 30 µM (≈ 11.3 µg/mL), respectively. Moreover, the MIC came to 0.05 µM (≈ 0.0188 µg/mL) in [14], 8 nM (≈ 0.00301 µg/mL) in data set [15] and 0.11 µM (≈ 0.0414 µg/mL) in data set [16].

Consider `CCCc1ccc(NC(=O)COc2cc(C)nc3ccc(OC)cc23)cc1`, for which the viability at 72 h, 10 µM in data set [1] is 64%; in data set [2], 87%; in [3], 83%; in data set [4], 86%; in [5], 106%. In addition, the Activity in [6] worked out at 2.76 log10CFU. For the same compound, the MIC in [17] came out at 2.5 ng/mL (≈ 0.00686 µM); in data set [18], 2.5 ng/mL (≈ 0.00686 µM); in data set [19], 0.02 µg/mL (≈ 0.0549 µM); in data set [20], 2.5 ng/mL (≈ 0.00686 µM); in [21] it was 5 ng/mL (≈ 0.0137 µM); in data set [22] it was 5 ng/mL (≈ 0.0137 µM). Further, the results for the MIC in [14], in data set [15] and in data set [16] were 0.005 to 0.05 µM (≈ 0.00182 to 0.0182 µg/mL), 5 nM (≈ 0.00182 µg/mL) and below 0.05 µM, respectively. For the same compound, the values for the solubility kinetic in [7] and in data set [8] were 3.9 µM (≈ 1.42 µg/mL) and 2.4 µM (≈ 0.875 µg/mL), respectively. For the same compound, the Papp at 1 µM in [9] stood at 1.3 ×10⁻⁶ cm/s. For the same compound, in [10], the CLhep predicted at 2 µM was 12.7 mL/min/kg. The half-life at 2 µM in data set [11] stood at 30.2 min. In addition, the solubility thermodynamic at 24 h in data set [12] was determined as 260 µM (≈ 94.8 µg/mL); in data set [13], 90 µM (≈ 32.8 µg/mL).
